{"source": "patent US20140296257A1", "about": "“High-Loading Water-Soluable Carrier-Linked Prodrugs” (Ascendis Pharma A/S, priority 2011, published 2014)", "details": "pH 7.4 buffer, 37° C., released paliperidone plotted against time", "experimental": "Sample was incubated at 37° C. At various time points aliquots were analyzed by UPLC and the amount of released paliperidone was plotted against time. […] Curve fitting software was used to determine half life time of drug release from the respective conjugate.", "data": [{"substance": "4-arm PEG 20 kDa-octapaliperidone [Conjugate 5]", "values": [{"measurement": "Drug release kinetics", "value": "first order kinetics"}]}]}
